Measured values reported in PubChem BioAssay AID180 (DTP/NCI, 2004).
Values joined by “and” are separate entries in the source; they are usually repeats but may differ in a detail not shown here. Equal entries are not always repeated.

Test system: BDF1 mice, Adenocarcinoma 755 s.c., tumor weight T/C
Assay: NCI In Vivo Anticancer Drug Screen. Data for tumor model Adenocarcinoma 755 (subcutaneous) in B6D2F1 (BDF1) mice
Conditions: endpoint: mean tumor weight, higher = larger tumour
In short: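 In vivo antitumor screen on a transplantable tumor line. Result equals the measure in compound-treated animals divided by the same measure in vehicle controls.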

[1] = dose: 30.0 mg/kg/injection, schedule: Q01DX011 (ip), vehicle: carboxymethylcellulose (CMC)
[2] = dose: 60.0 mg/kg/injection, schedule: Q01DX011 (ip), vehicle: carboxymethylcellulose (CMC)
[3] = dose: 120.0 mg/kg/injection, schedule: Q01DX011 (ip), vehicle: carboxymethylcellulose (CMC)
[4] = dose: 240.0 mg/kg/injection, schedule: Q01DX011 (ip), vehicle: carboxymethylcellulose (CMC)
[5] = dose: 150.0 mg/kg/injection, schedule: Q01DX011 (ip), vehicle: saline
[6] = dose: 62.5 mg/kg/injection, schedule: Q01DX011 (ip), vehicle: methylcellulose (MC)
[7] = dose: 125.0 mg/kg/injection, schedule: Q01DX011 (ip), vehicle: methylcellulose (MC)
[8] = dose: 250.0 mg/kg/injection, schedule: Q01DX011 (ip), vehicle: methylcellulose (MC)

CS(=O)(=O)OCCC(=O)N1CCC(CCC2CCN(C(=O)CCOS(C)(=O)=O)CC2)CC1
T/C (dose: 25.0 mg/kg/injection, schedule: Q01DX011 (ip), vehicle: methylcellulose (MC)): 79 % of control
T/C (dose: 75.0 mg/kg/injection, schedule: Q01DX011 (ip), vehicle: methylcellulose (MC)): 63 % of control
T/C (dose: 225.0 mg/kg/injection, schedule: Q01DX011 (ip), vehicle: methylcellulose (MC)): 81 % of control

CSc1nc(N)nc2c1n(C)c[n+]2C
T/C [1]: 97 % of control
T/C [2]: 99 % of control
T/C [3]: 66 % of control
T/C [4]: 89 % of control

Cn1cc(F)c(=O)[nH]c1=O
T/C (dose: 5.0 mg/kg/injection, schedule: Q01DX011 (ip), vehicle: carboxymethylcellulose (CMC)): 86 % of control
T/C (dose: 10.0 mg/kg/injection, schedule: Q01DX011 (ip), vehicle: carboxymethylcellulose (CMC)): 117 % of control
T/C (dose: 20.0 mg/kg/injection, schedule: Q01DX011 (ip), vehicle: carboxymethylcellulose (CMC)): 87 % of control
T/C (dose: 40.0 mg/kg/injection, schedule: Q01DX011 (ip), vehicle: carboxymethylcellulose (CMC)): 99 % of control

Nc1ncc(N)c(N)n1
T/C [1]: 89 % of control
T/C [2]: 116 % of control
T/C [3]: 111 % of control
T/C [4]: 96 % of control

Nc1nc(N)c2[nH]c(N=Nc3ccc(N(CCO)CCO)cc3)nc2n1
T/C (dose: 37.5 mg/kg/injection, schedule: Q01DX011 (ip), vehicle: saline): 152 % of control
T/C [5]: 65 % of control

CC(=O)N(C)C
T/C (dose: 125.0 mg/kg/injection, schedule: Q#A X022 (ip), vehicle: saline): 84 % of control
T/C (dose: 250.0 mg/kg/injection, schedule: Q01DX011 (ip), vehicle: saline): 93 % of control and 105 % of control
T/C (dose: 250.0 mg/kg/injection, schedule: Q01DX011 (sc), vehicle: saline): 100 % of control
T/C (dose: 250.0 mg/kg/injection, schedule: Q03DX004 (ip), vehicle: saline): 64 % of control
T/C (dose: 500.0 mg/kg/injection, schedule: Q01DX006 (iv), vehicle: saline): 99 % of control
T/C (dose: 500.0 mg/kg/injection, schedule: Q01DX011 (im), vehicle: saline): 155 % of control
T/C (dose: 500.0 mg/kg/injection, schedule: Q01DX011 (ip), vehicle: saline): 98 % of control and 77 % of control
T/C (dose: 500.0 mg/kg/injection, schedule: Q03DX004 (ip), vehicle: saline): 79 % of control
T/C (dose: 500.0 mg/kg/injection, schedule: Q#A X022 (ip), vehicle: saline): 57 % of control
T/C (dose: 750.0 mg/kg/injection, schedule: Q01DX011 (ip), vehicle: other): 28 % of control
T/C (dose: 750.0 mg/kg/injection, schedule: Q03DX004 (ip), vehicle: saline): 84 % of control
T/C (dose: 1000.0 mg/kg/injection, schedule: Q01DX001 (ip), vehicle: saline): 72 % of control and 84 % of control
T/C (dose: 1000.0 mg/kg/injection, schedule: Q01DX006 (iv), vehicle: saline): 80 % of control
T/C (dose: 1000.0 mg/kg/injection, schedule: Q01DX011 (im), vehicle: saline): 78 % of control
T/C (dose: 1000.0 mg/kg/injection, schedule: Q01DX011 (ip), vehicle: other): 16 % of control
T/C (dose: 1000.0 mg/kg/injection, schedule: Q01DX011 (sc), vehicle: saline): 66 % of control and 71 % of control
T/C (dose: 1000.0 mg/kg/injection, schedule: Q03DX004 (ip), vehicle: saline): 91 % of control
T/C (dose: 1000.0 mg/kg/injection, schedule: Q#A X022 (ip), vehicle: saline): 29 % of control
T/C (dose: 1250.0 mg/kg/injection, schedule: Q01DX011 (ip), vehicle: other): 5 % of control
T/C (dose: 1500.0 mg/kg/injection, schedule: Q03DX004 (ip), vehicle: saline): 81 % of control
T/C (dose: 2000.0 mg/kg/injection, schedule: Q01DX006 (iv), vehicle: saline): 67 % of control
T/C (dose: 2000.0 mg/kg/injection, schedule: Q01DX011 (im), vehicle: saline): 22 % of control
T/C (dose: 2000.0 mg/kg/injection, schedule: Q01DX011 (ip), vehicle: saline): 16 % of control and 17 % of control
T/C (dose: 2000.0 mg/kg/injection, schedule: Q01DX011 (oral), vehicle: saline): 48 % of control and 57 % of control
T/C (dose: 2000.0 mg/kg/injection, schedule: Q01DX011 (sc), vehicle: saline): 64 % of control
T/C (dose: 2000.0 mg/kg/injection, schedule: Q03DX004 (ip), vehicle: saline): 69 % of control
T/C (dose: 3000.0 mg/kg/injection, schedule: Q03DX004 (ip), vehicle: saline): 36 % of control
T/C (dose: 4000.0 mg/kg/injection, schedule: Q01DX011 (oral), vehicle: saline): 11 % of control

COc1ccc(CSc2ncnc3nc[nH]c23)cc1
T/C (dose: 1.5 mg/kg/injection, schedule: Q01DX011 (ip), vehicle: carboxymethylcellulose (CMC)): 89 % of control
T/C (dose: 3.0 mg/kg/injection, schedule: Q01DX011 (ip), vehicle: carboxymethylcellulose (CMC)): 88 % of control
T/C (dose: 6.0 mg/kg/injection, schedule: Q01DX011 (ip), vehicle: carboxymethylcellulose (CMC)): 65 % of control
T/C (dose: 7.8 mg/kg/injection, schedule: Q01DX011 (ip), vehicle: methylcellulose (MC)): 58 % of control
T/C (dose: 15.6 mg/kg/injection, schedule: Q01DX011 (ip), vehicle: methylcellulose (MC)): 13 % of control
T/C (dose: 31.2 mg/kg/injection, schedule: Q01DX011 (ip), vehicle: methylcellulose (MC)): 10 % of control

O=C(CCCl)N1CCN(C(=O)CCCl)CC1
T/C (dose: 11.25 mg/kg/injection, schedule: Q01DX011 (ip), vehicle: methylcellulose (MC)): 64 % of control
T/C (dose: 22.5 mg/kg/injection, schedule: Q01DX011 (ip), vehicle: methylcellulose (MC)): 66 % of control
T/C (dose: 44.0 mg/kg/injection, schedule: Q01DX011 (ip), vehicle: saline): 86 % of control
T/C (dose: 45.0 mg/kg/injection, schedule: Q01DX011 (ip), vehicle: methylcellulose (MC)): 80 % of control
T/C (dose: 87.5 mg/kg/injection, schedule: Q01DX011 (ip), vehicle: saline): 63 % of control
T/C (dose: 90.0 mg/kg/injection, schedule: Q01DX011 (ip), vehicle: methylcellulose (MC)): 56 % of control
T/C (dose: 175.0 mg/kg/injection, schedule: Q01DX011 (ip), vehicle: methylcellulose (MC)): 26 % of control and 33 % of control and 50 % of control
T/C (dose: 175.0 mg/kg/injection, schedule: Q01DX011 (ip), vehicle: saline): 70 % of control
T/C (dose: 263.0 mg/kg/injection, schedule: Q01DX011 (ip), vehicle: saline): 40 % of control

CCCCC(CCCC)(C(=O)OCC)C(=O)OCC
T/C (dose: 40.6 mg/kg/injection, schedule: Q01DX011 (ip), vehicle: methylcellulose (MC)): 65 % of control
T/C (dose: 81.25 mg/kg/injection, schedule: Q01DX011 (ip), vehicle: methylcellulose (MC)): 63 % of control
T/C (dose: 162.5 mg/kg/injection, schedule: Q01DX011 (ip), vehicle: methylcellulose (MC)): 52 % of control

O=S(=O)(F)c1nc(Cl)c2[nH]cnc2n1
T/C (dose: 6.2 mg/kg/injection, schedule: Q01DX011 (ip), vehicle: methylcellulose (MC)): 117 % of control

CS(=O)(=O)OCC(O)C(O)COS(C)(=O)=O (stereo unspecified)
T/C (dose: 125.0 mg/kg/injection, schedule: Q01DX011 (ip), vehicle: carboxymethylcellulose (CMC)): 65 % of control
T/C (dose: 200.0 mg/kg/injection, schedule: Q01DX011 (ip), vehicle: saline): 66 % of control
T/C (dose: 250.0 mg/kg/injection, schedule: Q01DX011 (ip), vehicle: carboxymethylcellulose (CMC)): 20 % of control
T/C (dose: 500.0 mg/kg/injection, schedule: Q01DX011 (ip), vehicle: carboxymethylcellulose (CMC)): 6 % of control
T/C (dose: 800.0 mg/kg/injection, schedule: Q01DX011 (ip), vehicle: saline): 17 % of control

CCCCCCCCSc1ncnc2c1ncn2CC
T/C [5]: 58 % of control
T/C (dose: 300.0 mg/kg/injection, schedule: Q01DX011 (ip), vehicle: saline): 17 % of control

COc1cc(C=O)cc(O)c1O
T/C [6]: 72 % of control
T/C [7]: 58 % of control
T/C [8]: 40 % of control

CNC(=O)C(C)C
T/C (dose: 31.2 mg/kg/injection, schedule: Q01DX011 (ip), vehicle: other): 44 % of control
T/C (dose: 62.5 mg/kg/injection, schedule: Q01DX011 (ip), vehicle: other): 90 % of control
T/C (dose: 125.0 mg/kg/injection, schedule: Q01DX011 (ip), vehicle: other): 90 % of control
T/C (dose: 250.0 mg/kg/injection, schedule: Q01DX011 (ip), vehicle: other): 77 % of control

CC(=O)OCC1CCCC(n2cnc3c(Cl)ncnc32)O1 (stereo unspecified)
T/C [6]: 74 % of control
T/C [7]: 52 % of control
T/C [8]: 26 % of control

Nc1nc(Cl)cc(-c2ccccc2)n1
T/C (dose: 15.0 mg/kg/injection, schedule: Q01DX011 (ip), vehicle: methylcellulose (MC)): 86 % of control
T/C (dose: 31.0 mg/kg/injection, schedule: Q01DX011 (ip), vehicle: methylcellulose (MC)): 122 % of control
T/C (dose: 62.0 mg/kg/injection, schedule: Q01DX011 (ip), vehicle: methylcellulose (MC)): 94 % of control
T/C [7]: 65 % of control
T/C [8]: 107 % of control
